Data set [1] relates to oedema with carrageenan. Briefly: Anti-inflammatory activity: test of oedema with carrageenan. In kind it is in vivo. As to conditions: Rattus norvegicus, 30 mg/kg oral, rats, after 3 hours, n=6 per dose, read-out: Anti-inflammatory activity, % inhibition (volume of the oedema). As to the method: (§1) The anti-inflammatory activity of the compounds of the Examples has been evaluated according to the method of oedema with carrageenan and the analgesic activity has been evaluated according to the method of arthritis with kaolin.
The anti-inflammatory activity is evaluated in rats by the test of oedema with carrageenan. The product is administered orally at a rate of 2.5 ml/100 g (n=6 animals per dose) 2 hours 30 minutes after a water overload taken orally (2.5 ml/100 g). One hour after administration of the product, the oedema is induced by plantar subcutaneous injection of aqueous 2% carrageenan solution. The percentage inhibition of the volume of the oedema is calculated after 3 hours by measuring the volume of the paw with the aid of a mercury plethysmometer.

Data set [2] concerns arthritis with kaolin (pain response). Put plainly: Analgesic activity: test of arthritis with kaolin. In kind it is in vivo. As to conditions: 30 mg/kg oral, rats, 5 hours 30 minutes after administration, n=10 per dose. As to the method: as §1
The analgesic activity is evaluated in rats by the test of arthritis with kaolin. Thirty minutes after intra-articular administration of an aqueous 10% suspension of kaolin, the product is administered orally at a rate of 1 ml/100 g (n=10 animals per dose). The percentage inhibition of the animal's pain response (by rating the way it walks) is calculated 5 hours 30 minutes after administration of the product.

Data set [3] has as its target T1, COX-2 (purified enzyme from ewe placenta) (Ovis aries, UniProt P79208).
T1 construct: purified enzyme from ewe placenta; from tissue; host or cells: ewe placenta
T1 sequence (P79208 17-603): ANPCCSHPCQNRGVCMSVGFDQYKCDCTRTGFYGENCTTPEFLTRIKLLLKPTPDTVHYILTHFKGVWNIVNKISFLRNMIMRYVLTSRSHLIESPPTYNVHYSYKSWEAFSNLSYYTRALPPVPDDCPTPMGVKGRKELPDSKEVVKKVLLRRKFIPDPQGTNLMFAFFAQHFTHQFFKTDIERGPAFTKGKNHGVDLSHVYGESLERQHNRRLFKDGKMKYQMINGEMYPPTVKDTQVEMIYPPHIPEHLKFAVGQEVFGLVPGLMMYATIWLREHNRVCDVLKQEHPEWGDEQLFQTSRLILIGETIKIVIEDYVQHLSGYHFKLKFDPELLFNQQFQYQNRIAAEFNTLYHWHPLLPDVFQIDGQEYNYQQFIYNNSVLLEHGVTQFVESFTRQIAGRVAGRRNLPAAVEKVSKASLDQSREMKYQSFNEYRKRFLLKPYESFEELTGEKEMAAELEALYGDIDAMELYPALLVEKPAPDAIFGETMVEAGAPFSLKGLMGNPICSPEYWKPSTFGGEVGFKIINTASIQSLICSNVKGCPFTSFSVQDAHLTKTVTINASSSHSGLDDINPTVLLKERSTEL
Briefly: Inhibition of COX-2 enzymatic activity (PGE2 by EIA). The class given is biochemical. The conditions noted are these: arachidonic acid 4 μM, mean of 4 determinations; for inhibition at 10 µM: 10^-5 M; for inhibition at 0.1 µM: 10^-7 M. As to the method: (§2) Arachidonic acid (6 μM for COX-1, 4 μM for COX-2) is added to the reaction medium and incubation is carried out for 5 minutes at 25° C. When incubation has ended, the enzymatic reaction is stopped by the addition of 1N HCl and the PGE2 produced is determined by EIA. The results are expressed as the percentage inhibition of the COX-1 and COX-2 enzymatic activities and correspond to mean (±) standard deviations from the average of 4 determinations.

In data set [4] the target is T2, COX-1 (purified enzyme from ram seminal vesicles) (Ovis aries, UniProt P05979).
T2 construct: purified enzyme from ram seminal vesicles; from tissue; host or cells: ram seminal vesicles
T2 sequence (P05979 25-600): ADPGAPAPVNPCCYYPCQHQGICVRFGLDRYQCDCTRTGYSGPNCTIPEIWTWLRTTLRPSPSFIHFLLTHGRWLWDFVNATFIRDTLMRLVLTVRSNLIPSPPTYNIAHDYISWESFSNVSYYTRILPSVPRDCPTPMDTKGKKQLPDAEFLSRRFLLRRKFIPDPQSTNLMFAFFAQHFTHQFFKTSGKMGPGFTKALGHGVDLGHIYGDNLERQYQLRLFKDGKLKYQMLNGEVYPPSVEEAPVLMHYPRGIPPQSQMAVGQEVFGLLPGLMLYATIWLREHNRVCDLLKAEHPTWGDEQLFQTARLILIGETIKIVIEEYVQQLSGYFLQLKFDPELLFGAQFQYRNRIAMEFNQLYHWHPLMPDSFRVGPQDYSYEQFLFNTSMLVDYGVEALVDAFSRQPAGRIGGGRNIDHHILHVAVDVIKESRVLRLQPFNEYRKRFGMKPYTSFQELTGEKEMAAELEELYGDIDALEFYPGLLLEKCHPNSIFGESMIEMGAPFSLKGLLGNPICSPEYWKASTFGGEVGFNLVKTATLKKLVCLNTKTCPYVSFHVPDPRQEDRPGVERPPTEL
Put plainly: Inhibition of COX-1 enzymatic activity (PGE2 by EIA). As to conditions: arachidonic acid 6 μM, mean of 4 determinations; for inhibition at 10 µM: 10^-5 M; for inhibition at 0.1 µM: 10^-7 M. The class given is biochemical. The method, then: as §2

The nature of data set [5]: Gastric tolerance (ulcerogenic dose). The conditions noted are these: rat, in vivo. The arrangement: species or system Charles River rats strain CD. The method, then:
The gastic tolerance study is carried out in Charles River rats strain CD weighing 110 to 150 g. The animals are placed on a water diet 24 hours before administration of the product or the vehicle alone, via the oral route (1 ml/100 g) (n=6 animals per dose). Six hours after administration,the animals are sacrificed and the stomachs are removed and opened along the greater curvature. The number of haemorrhagic spots and lines per stomach identified macroscopically permits establishing an ulceration index (0: no lesion, 1: 1 to 2 lesions, 2: 3 to 4 lesions, 3: 5 to 8 lesions, 4: 9 to 16 lesions, 5: more than 17 lesions) and estimating the 50% ulcerogenic dose (UD50 =dose expressed in mg/kg inducing 4 to 5 lesions).

Consider nine compounds from patent US5866596A, “3,4-diaryloxazolone derivatives, their methods of preparation and their uses in therapeutics” (Laboratories UPSA, priority 1996, dated 1999).

A word on the inhibition: it is the share of the control response that was lost under treatment. Read a low inhibition as a response near the control.

Read-outs that look alike come from different tables or passages of the source.

As for `Cc1cccc(-n2c(-c3ccc(S(C)(=O)=O)cc3)coc2=O)c1` [Example 18, 3-(3-methylphenyl)-4-(4-methanesulfonylphenyl)-3H-oxazol-2-one], the inhibition in vivo at 30 mg/kg in data set [1] is 18%. Moreover, the “Analgesic activity, % inhibition (pain response)” value (from here on “Analgesic activity, % inhibition”) in data set [2] worked out at 0%. In data set [3], this compound had an inhibition at 10 µM of 92% and an inhibition at 0.1 µM of 14%. In data set [4], the inhibition at 10 µM stood at 0% and the inhibition at 0.1 µM is 0%.

`CS(=O)(=O)c1ccc(-c2coc(=O)n2-c2ccc(Cl)cc2)cc1` [Example 17, 3-(4-chlorophenyl)-4-(4-methanesulfonylphenyl)-3H-oxazol-2-one]: the inhibition in vivo at 30 mg/kg in data set [1] was found to be 32%. For the same compound, in data set [2], the “Analgesic activity, % inhibition” value is recorded as 42%. In data set [3], this compound yielded an inhibition at 10 µM of 85% and an inhibition at 0.1 µM of 11%. For the same compound, in data set [4], at 10 µM the inhibition was 0% and the inhibition at 0.1 µM was 0%.

For the compound `CS(=O)(=O)c1ccc(-c2coc(=O)n2-c2cccc(Cl)c2)cc1` [Example 19, 3-(3-chlorophenyl)-4-(4-methanesulfonylphenyl)-3H-oxazol-2-one], the inhibition in vivo at 30 mg/kg in data set [1] is 37%. In addition, the “Analgesic activity, % inhibition” value in data set [2] is given as 60%. In addition, the inhibition at 10 µM in data set [3] is 87%; in data set [4] it was 0%. The inhibition at 0.1 µM in data set [3] is 18%; in data set [4], 0%.

On to `Cc1ccc(-n2c(-c3ccc(S(C)(=O)=O)cc3)coc2=O)cc1` [Example 22, 3-(4-methylphenyl)-4-(4-methanesulfonylphenyl)-3H-oxazol-2-one], for which the inhibition in vivo at 30 mg/kg in data set [1] stood at 42%. For the same compound, in data set [3], the inhibition at 10 µM was found to be 88% and the inhibition at 0.1 µM is 12%.

With `CS(=O)(=O)c1ccc(-c2coc(=O)n2-c2ccc(Cl)c(Cl)c2)cc1` [Example 20, 3-(3,4-dichlorophenyl)-4-(4-methanesulfonylphenyl)-3H-oxazol-2-one], in data set [1], the inhibition in vivo at 30 mg/kg was 48%. Also, the “Analgesic activity, % inhibition” value in data set [2] came to 75%. In data set [3], this compound displayed an inhibition at 10 µM of 94% and an inhibition at 0.1 µM of 26%. Moreover, in data set [4], the inhibition at 10 µM turned out to be 0% and the inhibition at 0.1 µM worked out at 0%.

With `CS(=O)(=O)c1ccc(-c2coc(=O)n2-c2ccccc2)cc1` [Example 16, 3-phenyl-4-(4-methanesulfonylphenyl)-3H-oxazol-2-one], the inhibition in vivo at 30 mg/kg in data set [1] was 45%. For the same compound, the “Analgesic activity, % inhibition” value in data set [2] is listed as 60%. The figures for the inhibition at 10 µM in data set [3] and in data set [4] were 78% and 0%, respectively. For the same compound, the inhibition at 0.1 µM came to 16% in data set [3] and 0% in data set [4].

As for `CS(=O)(=O)c1ccc(-c2coc(=O)n2-c2ccc(F)cc2)cc1` [Example 4, 3-(4-fluorophenyl)-4-(4-methanesulfonylphenyl)-3H-oxazol-2-one], the inhibition in vivo at 30 mg/kg in data set [1] was found to be 53%. For the same compound, in data set [2], the “Analgesic activity, % inhibition” value is 55%. For the same compound, the inhibition at 10 µM was found to be 82.7% in data set [3] and 0% in data set [4]. The inhibition at 0.1 µM was found to be 12% in data set [3] and 0% in data set [4]. In data set [5] (po), this compound gave a TD50 at 6 h of more than 300 mg/kg.

Take `COc1ccc2c(c1)c(CC(=O)O)c(C)n2C(=O)c1ccc(Cl)cc1` [indomethacin, reference compound]: the TD50 at 6 h in data set [5] (rats, oral, 6 hours after administration, dose inducing 4 to 5 lesions, read-out: UD50 (confidence limit), 50% ulcerogenic dose) stood at 8.3 mg/kg.

Regarding `CS(=O)(=O)c1ccc(-c2coc(=O)n2-c2cccc(F)c2)cc1` [Example 21, 3-(3-fluorophenyl)-4-(4-methanesulfonylphenyl)-3H-oxazol-2-one], the inhibition in vivo at 30 mg/kg in data set [1] amounted to 55%. Further, the inhibition at 10 µM in data set [3] came to 76%; in data set [4], 0%. Besides, the figures for the inhibition at 0.1 µM in data set [3] and in data set [4] were 11% and 0%, respectively.
